Measurements reported in patent US20240197772A1, “COMPOSITIONS COMPRISING ONE OR MORE HMO'S WITH A CORE OF LacNAc-Lac” (FrieslandCampina Nederland B.V., priority 2020, published 2024).

Experiments:
CD36 = test: PCR gene expression of CD36 in PBMCs incubated with single HMOs; type: cell-based, human; conditions: PBMCs of 3 donors, 0.5 mg/ml HMO, 5 h, average, control set as 1, GAPDH reference gene
Description: (§1) The effect of single HMOs on the expression of genes relevant to cholesterol metabolism and atherogenesis was tested using Peripheral Blood Mononuclear Cells (PBMCs) from 3 donors and incubated those cells with 0.5 g/l of single HMOs. The level of expression was determined using PCR.
(§2) Peripheral blood mononuclear cells (PBMC's) were isolated from a buffy coat using Sepmate tubes. The cells were diluted to a concentration of 1*10^7 cells per ml. The PBMC's were seeded in 6 wells plates and treated with 0.5 g/l of each HMO in PBMC culturing medium for 5 h prior to RNA isolation. Each HMO was mixed with 100 ug/ml final concentration of Polymyxin B to ensure neutralization of possible endotoxin contamination of HMOs, while equal amounts of Polymyxin B were used as a control.
(§3) 500 ng RNA, isolated from PBMCs, was translated into cDNA, using the quantitect reverse transcription kit (Qiagen). Primersets for the regulated genes (shown in the table below), were ordered at Qiagen (Quantitect primer assays). From each condition (PBMCs of 3 donors in control situation and after exposure towards HMOs (5 hrs)) cDNA (100×, 10× for genes which were low expressed) was amplified using the different primersets.
(§4) GAPDH (Glyceraldehyde-3-Phosphate Dehydrogenase) was used as a reference gene to quantify changes of gene expression between the control and the HMO-treated cells.
(§5) • GAPDH: Hs_GAPDH_vb.1_SG QuantiTect Primer Assay • IL19: Hs_IL19_1_SG QuantiTect Primer Assay • CD36: Hs_CD36_3_SG QuantiTect Primer Assay • GPR43/FFAR2: Hs_FFAR2_2_SG QuantiTect Primer Assay • ABCA1: Hs_ABCA1_1_SG QuantiTect Primer Assay
(§6) 19 commercially available HMO's that are present in human milk were tested. All gene expression values were calibrated to the Polymyxin B control of each respective donor (set arbitrary as 1). Average values for each gene compared to the Polymyxin B control are shown below (values above 1.5 fold or below 0.5 fold were considered physiologically relevant).

GPR43/FFAR2 = test: PCR gene expression of GPR43/FFAR2 in PBMCs incubated with single HMOs; type: cell-based, human; conditions: PBMCs of 3 donors, 0.5 mg/ml HMO, 5 h, average, control set as 1, GAPDH reference gene
Description: as §1, §2, §3, §4, §5, §6

IL19 = test: PCR gene expression of IL19 in PBMCs incubated with single HMOs; type: cell-based, human; conditions: PBMCs of 3 donors, 0.5 mg/ml HMO, 5 h, average, control set as 1, GAPDH reference gene
Description: as §1, §2, §3, §4, §5, §6

ABCA1 = test: PCR gene expression of ABCA1 in PBMCs incubated with single HMOs; type: cell-based, human; conditions: PBMCs of 3 donors, 0.5 mg/ml HMO, 5 h, average, control set as 1, GAPDH reference gene
Description: as §1, §2, §3, §4, §5, §6
2′FL was included too as it was expected that the most abundant HMO in human milk would show changes in any of these systems. […]

Primary human adipocytes = test: Adipocyte glucose uptake assay (3H-2-deoxyglucose); type: cell-based; conditions: 2 hours incubation; compared with vehicle control DMSO and insulin 100 nM positive control; LPS 2 ng/mL
Text: • 1. Subcutaneous preadipocytes from Zen-Bio Inc were thawed and plated into appropriate experimental plate format. • 2. Upon thawing cells, culturing followed differentiation schedule below: • Day Treatment • 1 Plate cells in PM-1 • 2 Differentiate cells using DM-2 • 9 Feed cells Maintenance medium AM-1 • 16 Assay cells for lipid accumulation, lipolysis, glucose uptake or RNAseq. • 1. Primary human adipocytes were differentiated in 96-well isoplates • 2. At 14 days post differentiation, the cells were treated with glucose uptake starvation media (Zen-Bio Inc) overnight. • 3. The next morning, the cells were washed with assay buffer and the cells were treated with compounds in glucose assay buffer containing ^3H-2-deoxyglucose cocktail and the cells were incubated at 37° C., 5% CO2 and allowed to incubate for 2 hours. • 4. After 2 hours, the cells were washed with PBS, lysed, and mixed with Optiphase “Supermix” scintillation fluid (Zen-Bio Inc). The Counts Per Minute (CPM) of each well measured. • Vehicle control: DMSO (control) • Zen Bio Insulin positive control: 100 nM (insulin) • Control for possible endotoxin contamination of pHMOs: […]

CD14+ CD36+ PBMC's = test: Cholesterol uptake (Dil oxLDL) by FACS in PBMCs; type: cell-based; conditions: 0.5 mg/ml, 4 hrs pre-incubation then 10 ug/ml Dil oxLDL 1 hour; gated on CD14+ CD36+ cells; FIG. 1

Molecule	CD36 gene expression relative to Polymyxin B control (CD36) [fold]	FFAR2 gene expression relative to Polymyxin B control (GPR43/FFAR2) [fold]	IL19 gene expression relative to Polymyxin B control (IL19) [fold]	ABCA1 gene expression relative to Polymyxin B control (ABCA1) [fold]	glucose uptake (CPM of 3H-2-deoxyglucose) (Primary human adipocytes)	cholesterol level in the cell, % of original value (MFI vs no glycan control with Dil oxLDL) (CD14+ CD36+ PBMC's)	CD36 gene expression relative to Polymyxin B control (CD36; listed as LNF-III)
3-Fucosyllactose [3FL]	0.98	1.18	1.06				
CC(=O)N[C@H]1[C@H](O[C@H]2[C@@H](O)[C@@H](CO)O[C@@H](O[C@H]3[C@H](O)[C@@H](O)C(O)O[C@@H]3CO)[C@@H]2O)O[C@H](CO)[C@@H](O[C@@H]2O[C@H](CO)[C@H](O)[C@H](O)[C@H]2O)[C@@H]1O (mixture of isomers) [LNnT, lacto-N-neotetraose]	0.93	0.93	0.93				
C[C@@H]1O[C@@H](O[C@H]2[C@H](O[C@H]3[C@H](O)[C@@H](O)C(O)O[C@@H]3CO)O[C@H](CO)[C@H](O)[C@@H]2O)[C@@H](O)[C@H](O)[C@@H]1O (stereo partly drawn) [2′FL, 2′-fucosyllactose]	0.67	0.72		1.09	not significantly different from the vehicle control	about 91%	
CC(=O)N[C@H]1[C@H]([C@H](O)[C@H](O)CO)O[C@@](O[C@H]2[C@@H](O)[C@@H](CO)O[C@@H](O[C@H]3[C@H](O[C@@H]4O[C@@H](C)[C@@H](O)[C@@H](O)[C@@H]4O)[C@@H](O)C(O)O[C@@H]3CO)[C@@H]2O)(C(=O)O)C[C@@H]1O (stereo partly drawn) [3S3FL]	0.90	1.03	0.94				
CC(=O)N[C@H]1[C@H]([C@H](O)[C@H](O)CO)O[C@@](O[C@H]2[C@@H](O)[C@@H](CO)O[C@@H](O[C@H]3[C@H](O)[C@@H](O)C(O)O[C@@H]3CO)[C@@H]2O)(C(=O)O)C[C@@H]1O (stereo partly drawn) [3′SL, 3′-Sialyllactose]	0.87	1.25	1.24				
CC(=O)N[C@H]1[C@H]([C@H](O)[C@H](O)CO)O[C@@](OC[C@H]2O[C@@H](O[C@H]3[C@H](O)[C@@H](O)[C@H](O)O[C@@H]3CO)[C@H](O)[C@@H](O)[C@H]2O)(C(=O)O)C[C@@H]1O [6′SL, 6′-Sialyllactose]	0.93	1.83	1.05				
CC(=O)N[C@H]1[C@H](O[C@H]2[C@@H](O)[C@@H](CO)O[C@@H](O[C@@H]([C@H](O)[C@@H](O)C=O)[C@H](O)CO)[C@@H]2O)O[C@H](CO[C@]2(C(=O)O)C[C@H](O)[C@@H](NC(C)=O)[C@H]([C@H](O)[C@H](O)CO)O2)[C@@H](O)[C@@H]1O[C@@H]1O[C@H](CO)[C@H](O)[C@H](O[C@]2(C(=O)O)C[C@H](O)[C@@H](NC(C)=O)[C@H]([C@H](O)[C@H](O)CO)O2)[C@H]1O [DSLNT, disialyllacto-N-tetraose]				2.02			
C[C@@H]1O[C@@H](O[C@H]2[C@H](O[C@H]3[C@H](O[C@@H]4O[C@@H](C)[C@@H](O)[C@@H](O)[C@@H]4O)[C@@H](O)C(O)O[C@@H]3CO)O[C@H](CO)[C@H](O)[C@@H]2O)[C@@H](O)[C@H](O)[C@@H]1O (stereo partly drawn) [LDFT]	1.00	1.64	0.75				
CC(=O)N[C@H]1[C@H](O[C@H]2[C@@H](O)[C@@H](CO)O[C@@H](O[C@H]3[C@H](O)[C@@H](O)C(O)O[C@@H]3CO)[C@@H]2O)O[C@H](CO)[C@@H](O)[C@@H]1O[C@@H]1O[C@H](CO)[C@H](O)[C@H](O)[C@H]1O (stereo partly drawn) [LNT, lacto-N-tetraose]	0.93	0.93	0.93				
CC(=O)N[C@H]1[C@H](O[C@H]2[C@@H](O)[C@@H](CO)O[C@@H](O[C@@H]([C@H](O)[C@@H](O)C=O)[C@H](O)CO)[C@@H]2O)O[C@H](CO[C@]2(C(=O)O)C[C@H](O)[C@@H](NC(C)=O)[C@H]([C@H](O)[C@H](O)CO)O2)[C@@H](O)[C@@H]1O[C@@H]1O[C@H](CO)[C@H](O)[C@H](O)[C@H]1O [LSTb, sialyllacto-N-tetraose b]	0.75		1.31				
CC(=O)N[C@H]1[C@H](O[C@H]2[C@@H](O)[C@@H](CO)O[C@@H](O[C@H]3[C@H](O)[C@@H](O)C(O)O[C@@H]3CO)[C@@H]2O)O[C@H](CO)[C@@H](O[C@@H]2O[C@H](CO[C@]3(C(=O)O)C[C@H](O)[C@@H](NC(C)=O)[C@H]([C@H](O)[C@H](O)CO)O3)[C@H](O)[C@H](O)[C@H]2O)[C@@H]1O (stereo partly drawn) [LSTc]	0.90	1.02	1.25				
LNFP-I	0.85	0.86	1.89				
Lacto-N-fucopentaose III [LNFP-III]	0.08						reduce
Lipopolysaccharide [LPS]					did not upregulate glucose uptake at all		
lactodifucoheaxose II [LNDFH-II]				2.16			
